Test results taken from patent publication US10961539B2, “Promoter system inducing expression by 3-hydroxypropionic acid and method for biological production of 3-hydroxypropionic acid using same” (NOROO IC Co., Ltd., priority 2015, dated 2021).
Read-outs that look alike come from different tables or passages of the source.

Experiments:
[1] = test system: C4-LysR protein and promoter DNA fragments; experiment: Electrophoretic mobility shift assay (EMSA) of C4-LysR protein with promoter DNA fragments; type: binding, Pseudomonas denitrificans; details: 25 mM 3-HP
[2] = test system: 3hpdh, 3hibdhIV, and mmsadh; experiment: Inducer specificity of gene expression (FIGS. 4 and 5); type: cell-based, Pseudomonas denitrificans
3hpdh [3] = experiment: RT-PCR relative mRNA level of 3-HP catabolic gene
3hpdh [4] = experiment: RT-PCR relative mRNA levels of 3-HP degrading genes in various microorganisms (Table 7); type: cell-based, microorganisms shown in Table 1
C4-LysR = experiment: GFP reporter inserted at C4-LysR position; type: cell-based, Pseudomonas denitrificans; details: w 3-HP 25 mM
Excerpt: The effect of the O1 and O2 operators on biosynthesis of the C4-LysR protein and the mmsadh expression was examined by using a green fluorescent protein (GFP) as a reporter (Table 2). In Table 2, the effect of the C4-LysR protein and the O1 and O2 operators on the expression of the C4-LysR and the mmsadh. The relative size of the GFP was shown relative to the wild type in the absence of 3-HP. the C4-LysR protein was either not present or was produced by a constitutive promoter, and a plasmid was prepared to control the expression of the GFP upon the existing promoter having the O1 and O2 operators. Then, the experiment was carried out by inserting the prepared plasmid into a host of P. denitrificans from which genes between the C4-LysR and the mmsadh was deleted. Accordingly, the expression of the GFP was suppressed by the C4-LysR protein itself. That is, when the C4-LysR is expressed, the GFP expression was reduced by more than 10-fold. In addition, the expression regulation was also constant regardless of the presence of 3-HP. In this regard, it was confirmed that the transcription of C4-LysR mRNA was negatively regulated by the C4-LysR protein. This experiment was repeated by using a promoter that randomized the O1 and O2 operators to eliminate the symmetrical dyad. As a result, in the case where the O1 or O2 operator site was randomized, the GFP expression was not regulated by the C4-LysR protein, referring that the C4-LysR protein in the P. denitrificans strain was negatively regulated by the strain itself.

SMILES: O=C(O)CCO [3-HP, 3-hydroxypropionic acid]
- change of affinity of C4-LysR protein to DNA fragment in the presence of 3-HP ([1]; fragment F1): barely changed affinity
- change of affinity of C4-LysR protein to DNA fragment in the presence of 3-HP ([1]; fragment F2): slightly decreased affinity
- change of affinity of C4-LysR protein to DNA fragment in the presence of 3-HP ([1]; fragment F12 (O1 and O2 operators)): increased affinity
- inducer of expression of mmsadh and 3hibdhIV ([2]; FIG. 4): acts as an inducer
- amplification of the genes 3hpdh, 3hibdhIV and mmsadh by the compound ([2]; FIGS. 4 and 5): amplified
- inducer of expression of 3hpdH (3hpdh [3]; FIG. 5): acts as an inducer
- fold increase of 3hpdh mRNA expression (3hpdh [3]; cells exposed to 25 mmol/L 3-HP vs no 3-HP, M9 medium, rpoD reference gene): 46 fold
- 3hpdh expression on addition of 3-HP (3hpdh [3]; strain with C3 LysR gene removed): not amplified
- Relative mRNA level 3hpdh + 3-HP (3hpdh [4]): 0.19
- Relative mRNA level 3hpdh + 3-HP (3hpdh [4]; Achromobacter denitrificans, + 3-HP): 0.24
- Relative mRNA level 3hpdh + 3-HP (3hpdh [4]; Acidovorax avenae subsp., + 3-HP): 0.28
- Relative mRNA level 3hpdh + 3-HP (3hpdh [4]; Acidovorax sp., + 3-HP): 0.31
- Relative mRNA level 3hpdh + 3-HP (3hpdh [4]; Acinetobacter baumannii, + 3-HP): 0.19
- Relative mRNA level 3hpdh + 3-HP (3hpdh [4]; Agrobacterium sp., + 3-HP): 0.27
- Relative mRNA level 3hpdh + 3-HP (3hpdh [4]; Alcaligenes faecalis, + 3-HP): 0.26
- Relative mRNA level 3hpdh + 3-HP (3hpdh [4]; Alcanivorax hongdengensis, + 3-HP): 0.27
- Relative mRNA level 3hpdh + 3-HP (3hpdh [4]; Alicychphilus denitrificans, + 3-HP): 0.30
- Relative mRNA level 3hpdh + 3-HP (3hpdh [4]; Alteromonas marina, + 3-HP): 0.34
- Relative mRNA level 3hpdh + 3-HP (3hpdh [4]; Azospirillum brasilensse, + 3-HP): 0.41
- Relative mRNA level 3hpdh + 3-HP (3hpdh [4]; Bordetella avium, + 3-HP): 0.45
- Relative mRNA level 3hpdh + 3-HP (3hpdh [4]; Bradyrhizobium japonicum, + 3-HP): 0.52
- Relative mRNA level 3hpdh + 3-HP (3hpdh [4]; Burkholderia ambifaria, + 3-HP): 0.31
- Relative mRNA level 3hpdh + 3-HP (3hpdh [4]; Catenulispora acidiphilia, + 3-HP): 0.41
- Relative mRNA level 3hpdh + 3-HP (3hpdh [4]; Caulobacter sp., + 3-HP): 0.45
- Relative mRNA level 3hpdh + 3-HP (3hpdh [4]; Chromobacterium violaceum, + 3-HP): 0.25
- Relative mRNA level 3hpdh + 3-HP (3hpdh [4]; Comamonas testosteroni, + 3-HP): 0.24
- Relative mRNA level 3hpdh + 3-HP (3hpdh [4]; Corynebacterium vitaeruminis, + 3-HP): 0.28
- Relative mRNA level 3hpdh + 3-HP (3hpdh [4]; Cupriavidus necator, + 3-HP): 0.21
- Relative mRNA level 3hpdh + 3-HP (3hpdh [4]; Glaciecola nitratireducens, + 3-HP): 0.30
- Relative mRNA level 3hpdh + 3-HP (3hpdh [4]; Gordonia bronchialis, + 3-HP): 0.29
- Relative mRNA level 3hpdh + 3-HP (3hpdh [4]; Hahella chijuensis, + 3-HP): 0.28
- Relative mRNA level 3hpdh + 3-HP (3hpdh [4]; Halomonas elongata, + 3-HP): 0.32
- Relative mRNA level 3hpdh + 3-HP (3hpdh [4]; Hirschia litorea, + 3-HP): 0.34
- Relative mRNA level 3hpdh + 3-HP (3hpdh [4]; Idiomarina sp., + 3-HP): 0.42
- Relative mRNA level 3hpdh + 3-HP (3hpdh [4]; Janthinobacterium lividum, + 3-HP): 0.33
- Relative mRNA level 3hpdh + 3-HP (3hpdh [4]; Kitasatospora setae, + 3-HP): 0.36
- Relative mRNA level 3hpdh + 3-HP (3hpdh [4]; Kutzneria albida, + 3-HP): 0.41
- Relative mRNA level 3hpdh + 3-HP (3hpdh [4]; Methylobacterium sp., + 3-HP): 0.45
- Relative mRNA level 3hpdh + 3-HP (3hpdh [4]; Novosphingobium sp., + 3-HP): 0.39
- Relative mRNA level 3hpdh + 3-HP (3hpdh [4]; Oceanimonas smirnovii, + 3-HP): 0.24
- Relative mRNA level 3hpdh + 3-HP (3hpdh [4]; Paracoccus sp., + 3-HP): 0.25
- Relative mRNA level 3hpdh + 3-HP (3hpdh [4]; Parvibaculum lavamentivorans, + 3-HP): 0.28
- Relative mRNA level 3hpdh + 3-HP (3hpdh [4]; Phenylobacterium kunshanensis, + 3-HP): 0.33
- Relative mRNA level 3hpdh + 3-HP (3hpdh [4]; Polynucleobacter necessarius asymbioticus, + 3-HP): 0.45
- Relative mRNA level 3hpdh + 3-HP (3hpdh [4]; Pseudogulbenkiania sp., + 3-HP): 0.26
- Relative mRNA level 3hpdh + 3-HP (3hpdh [4]; Pseudomonas denitrificans ATCC13867, + 3-HP): 0.23
- Relative mRNA level 3hpdh + 3-HP (3hpdh [4]; Pseudomonas fluorescens, + 3-HP): 0.27
- Relative mRNA level 3hpdh + 3-HP (3hpdh [4]; Pseudomonas knackmussii, + 3-HP): 0.25
- Relative mRNA level 3hpdh + 3-HP (3hpdh [4]; Pseudomonas protegens, + 3-HP): 0.19
- Relative mRNA level 3hpdh + 3-HP (3hpdh [4]; Psychrobacter phenylpyruvicus, + 3-HP): 0.37
- Relative mRNA level 3hpdh + 3-HP (3hpdh [4]; Rhodomicrobium vannielli, + 3-HP): 0.41
- Relative mRNA level 3hpdh + 3-HP (3hpdh [4]; Segniliparus rotundus, + 3-HP): 0.27
- Relative mRNA level 3hpdh + 3-HP (3hpdh [4]; Shewanella oneidensis, + 3-HP): 0.28
- Relative mRNA level 3hpdh + 3-HP (3hpdh [4]; Simiduia agarovorans, + 3-HP): 0.29
- Relative mRNA level 3hpdh + 3-HP (3hpdh [4]; Sphingobium chlorophenolicum, + 3-HP): 0.33
- Relative mRNA level 3hpdh + 3-HP (3hpdh [4]; Sphingomonas wittichii, + 3-HP): 0.45
- Relative mRNA level 3hpdh + 3-HP (3hpdh [4]; Stenotrophomonas maltophilia, + 3-HP): 0.31
- Relative mRNA level 3hpdh + 3-HP (3hpdh [4]; Streptomyces nodosus, + 3-HP): 0.39
- Relative mRNA level 3hpdh + 3-HP (3hpdh [4]; Verminephrobacter eiseniae, + 3-HP): 0.43
- Relative mRNA level 3hpdh + 3-HP (3hpdh [4]; Vibrio furnissii, + 3-HP): 0.39
- Relative mRNA level 3hpdh + 3-HP (3hpdh [4]; Xanthobacter autotrophicus, + 3-HP): 0.27
- Relative mRNA level 3hpdh + 3-HP (3hpdh [4]; Xanthomonas campestri, + 3-HP): 0.25
- increase of expression of 3hpdh by 3-HP (3hpdh [4]; in the microorganisms (Table 7), 25 mM 3-HP in nutrient medium): 6 fold
- relative size of GFP (relative to wild type in the absence of 3-HP) (C4-LysR; O1 & O2 mutation): 10
- relative size of GFP (relative to wild type in the absence of 3-HP) (C4-LysR; O1 mutation): 10
- relative size of GFP (relative to wild type in the absence of 3-HP) (C4-LysR; O2 mutation): 1
- relative size of GFP (relative to wild type in the absence of 3-HP) (C4-LysR; wildtype): 1
- relative size of GFP (relative to wild type in the absence of 3-HP) (C4-LysR; ΔC4-LysR): 10
